Measurements as given in EP1094066A2, “Condensed heterocyclic glutamic acid derivatives as antiproliferative agents” (AGOURON PHARMACEUTICALS, INC., priority 1993, dated 1994).

Test system: L1210 murine leukemia (ATCC CCL 219) cell line
Experiment: Cellular growth inhibition, MTT-tetrazolium reduction assay
Type: cell-based
Conditions: Mus musculus, 72 h; L1210 cells, 3 days of continuous exposure
Procedure: Cellular growth in the presence of the compounds according to the present invention was assessed using the L1210 murine leukemia (ATCC CCL 219) cell line. The cell line was maintained in RPMI 1640 medium containing 5% heat-inactivated fetal bovine serum without antibiotics.
Water insoluble derivatives were dissolved in DMSO and diluted to a final concentration of 0.5% solvent in cell cultures.

## Nc1nc2c(c(=O)[nH]1)SC(CCc1ccc(C(=O)N[C@@H](CCC(=O)O)C(=O)O)cc1)CN2 (stereo partly shown) [(14), 2-[4-[2-(2-Amino-4-oxo-4,6,7,8-tetrahydro-3H-pyrimido[5,4-b][1,4]thiazin-6-yl)-ethyl]benzoylamino)pentanedioic acid]
  IC50: 50 nM
